Measurements published in paper PMC9719539, “Single-molecule characterization of subtype-specific β1 integrin mechanics” (Nature Communications, 2022).

Assays:
BJ-5ta cells [1] = test: Cytoskeletal inhibitor effects on TGT rupture and spreading; format: cell-based, human; conditions: for TGT rupture with inhibitor (in words), all substrates / cell spreading with inhibitor (in words): 1 h; for TGT rupture with inhibitor (in words), all substrates: inhibitors 5 min preincubation; for cell spreading with inhibitor (in words): RGD- and LDVP-TGT
Description: (21 pictures or pasted objects on this page, not shown here)

integrin αVβ3 = molecular target: T1, integrin αVβ3 (Homo sapiens, UniProt P05106+P06756); test: Competition with cRGDfK-TF5WS binding to αVβ3 on K562 transfectants
T1 construct: expressed in transfected cells
Description: (§1) Source data are provided as a Source Data file. […]
(§2) Source data are provided as a Source Data file.
(§3) (1 picture or pasted object on this page, not shown here)

integrin αVβ5 = molecular target: T2, integrin αVβ5 (Homo sapiens, UniProt P06756+P18084); test: Competition with cRGDfK-TF5WS binding to αVβ5 on K562 transfectants
T2 construct: expressed in transfected cells
Description: as §1, §2, §3

BJ-5ta cells [2] = test: Percentage of spread cells / cell spreading on TGT surfaces; format: cell-based, human; conditions: for tension threshold for cell spreading: nominal Ttol
Method: Glass coverslips were densely PEGylated to minimize non-specific interactions such as the binding of cell-secreted extracellular matrix proteins. Coverslips cleaned by piranha etching solution (a 3:1 mixture of sulfuric acid and hydrogen peroxide) were incubated in silanization solution (UCT, 1760-24-3; 2% aminosilane and 5% acetic acid in methanol) for 30 min and reacted with a mixture of Polyethylene glycol (PEG) with and without biotin (1:19, 150 mg/ml; Laysan Bio, Biotin-PEG-SVA-5000 and MPEG-SVA-5000) for 4 h. Surfaces were washed thoroughly and dried using nitrogen gas after each step. A 3D-printed dish (PLA) or a silicon gasket (Grace Bio Labs, 103280) was attached to the coverslip to form a dish. Neutravidin (Thermo Fisher scientific, 31000; 0.4 mg/ml) was added to the dish for 10 min and washed out thoroughly. The dish was emptied and a droplet (3 µL) of TGT solution (100 nM unless specified otherwise) was placed on the coverslip for 10 min in a humid condition to locally immobilize TGT. For the lateral drift correction for time-resolved TGT rupture analysis, biotin-coated gold nanoparticles (Luna Nanotech, GNP-BIOT-100-2-04; 100 nm) were sparsely immobilized as fiducial markers. For protein ligand coating, protein (50 ug/ml in PBS) was incubated in glass bottomed imaging dishes for 1 h at RT without additional passivation.
The cells were gently harvested by washing in PBS for 1 min, incubating with 0.05% trypsin for 3 min, and then neutralizing with cell culture medium (FBS 10%). The cells were spun down and resuspended with Leibovitz’s L-15 Medium (Gibco, 21083027) supplemented with 2 g/L glucose, then seeded on the TGT surface at an approximate density of 30 cells/mm^2. For integrin inhibition experiments, cells were incubated with Fab for 5 min before seeding. For cell immobilization experiments, cells were incubated with 1 nM Cholesterol-PEG-Biotin (Nanosoft Polymers, 3084-2000) for 5 min, followed by washes by centrifugation to remove biotin in solution before seeding. The imaging area was humidified and the temperature was maintained at 37 °C. A Nikon Eclipse Ti microscope equipped with Xenon arc lamp, Nikon perfect focus system, custom total internal reflection fluorescence microscopy (TIRFM) module, and custom reflection interference contrast microscopy (RICM) module was driven by Elements software. Dark regions in RICM show where cells have closely adhered to the surface (≪300 nm gap). Nikon 10X objective (CFI60 Plan Fluor) and 60X objective (CFI60 Apochromat TIRF) with DIC filter sets were used. […] Images were recorded using an electron-multiplying charge-coupled device (EMCCD; Andor iXon 888).
Single-cell data were obtained from multiple independent sample preparations for each condition as specified. Percentage of spread cells was obtained from three independent experiments. Statistical analyses were performed using MATLAB software. Two-sided (two sample) t-test was used for two group comparisons. Each group was compared with the control group unless specified otherwise. Representative micrographs are selected from at least two independent experiments.

BJ-5ta cells [3] = test: Actin retrograde flow rate (kymographs, SiR-actin); format: cell-based, human; conditions: 64, 71 loci from 15, 13 cells
Method: BJ-5ta cells were seeded on RGD-54pN or LDVP-54pN surfaces for 40 min and 20 nM SiR-actin and 10 µM verapamil (Cytoskeleton, CY-SC001) were added 20 min before imaging. Time-lapse TIRF imaging (640 nm) was done with 2–5 s interval for more than 60 frames. Kymographs were generated with ImageJ and the linear fit analysis was done with MATLAB scripts.

[4] = test system: extended-open β1 integrin on BJ-5ta cells; test: β1 integrin activation: number and density of bound AF647-12G10 Fab on biotin-PEG-cholesterol immobilized cells; format: cell-based, human
BJ-5ta cells [5] = test: Traction force microscopy on ligand-coated polyacrylamide gels; format: cell-based, human
Method: Polyacrylamide gels (0.69 and 4.07 kPa shear modulus, 40 μm thickness) were prepared on glass coverslips with embedded 40 nm fluorescent beads (Thermo Scientific, TransFluoSpheres 633/720) and the surfaces were coated with neutravidin as described. […] Cells were seeded on the gels for 1 h. The bead images were taken before and after cell removal with the addition of 0.1% SDS. Bead displacements were determined using particle image velocimetry, and the corresponding contractile energy was estimated with Fourier transform traction cytometry, using ImageJ plugins. The cell area was determined by manually drawing an ROI in the DIC channel. Imaging was performed on Nikon Eclipse Ti2 microscopes equipped with Perfect Focus, CSU-W1 spinning disk, and Hamamatsu Orca-flash 4.0 v3 camera. Illumination was provided by optical fiber (Oz Optics) coupled solid-state lasers: 561 nm (200 mW) for Cy3 and, 655 nm (100 mW) for fluorescent beads from Spectral Applied Research.

integrin α4β1 (EO state) = conditions: extended-open conformation; read-out: affinity for EO state of α4β1; cited from earlier work
BJ-5ta cells [6] = test: BJ-5ta spreading on ACRGD-TGT with or without integrin blocking Fabs (area, aspect ratio); format: cell-based, human
Method: Fig. 9 Integrin α5β1 mediated cell spreading. a Affinity of ACRGD for integrins on intact cells. Titration curves are shown in Supplementary Fig. 13. b–d Behavior of BJ-5ta on ACRGD-54pN (BHQ2-Cy3) surfaces after 1 h in presence of integrin blocking Fabs described in Fig. 6 legend. b Close-contact enclosed area from RICM images (n = 43, 38, 47, 96, 50 cells). c Aspect ratio of contact area (n = 56, 49, 38 cells, >500 μm^2). d Ruptured TGT counts (n = 44, 40, 48, 96 cells). e–g Cell spreading on ACRGD-TGT of different Ttol in presence of integrin blocking Fabs. e Representative images of cells with RICM (top row) and same cells with DIC or Cy3 fluorescence to show TGT rupture (bottom row). Dim RICM rings (~20 μm diameter) with 12, 23 and 33 pN TGT are the shadows of the spherical cell body, not the close contacts. […]
The cells were gently harvested by washing in PBS for 1 min, incubating with 0.05% trypsin for 3 min, and then neutralizing with cell culture medium (FBS 10%). […] A Nikon Eclipse Ti microscope equipped with Xenon arc lamp, Nikon perfect focus system, custom total internal reflection fluorescence microscopy (TIRFM) module, and custom reflection interference contrast microscopy (RICM) module was driven by Elements software. […] Images were recorded using an electron-multiplying charge-coupled device (EMCCD; Andor iXon 888).

In the case of `Cc1[nH]c2ccccc2c1CCNC(=O)c1ccccc1F` [CK666], the “TGT rupture with inhibitor (in words), all substrates” value (from here on “TGT rupture with inhibitor (in words)”) (BJ-5ta cells [1]) is reported as “no significant effect”.

For `C[C@@H](N)[C@H]1CC[C@H](C(=O)Nc2ccncc2)CC1` [Y-27632], the “rupture of RGD-54pN with inhibitor (in words)” value (BJ-5ta cells [1]; RGD-54pN) was “significantly suppressed” and the “cell spreading with inhibitor (in words)” value (BJ-5ta cells [1]) was “did not disrupt cell spreading”.

For `C=C1[C@@H](C)[C@H]2[C@H](Cc3ccccc3)NC(=O)[C@]23[C@H](OC(C)=O)/C=C/[C@@](C)(O)C(=O)[C@@H](C)C/C=C/[C@H]3[C@@H]1O` [Cytochalasin D], the “TGT rupture with inhibitor (in words)” value (BJ-5ta cells [1]) was “eliminated TGT rupture on all substrates” and the “cell spreading with inhibitor (in words)” value (BJ-5ta cells [1]) was “inhibited cell spreading”.

For `Cc1ccc2c(c1)C(=O)[C@]1(O)CCN(c3ccc(N)cc3)C1=N2` [para-amino-blebbistatin], the “rupture of LDVP-12pN with inhibitor (in words)” value (BJ-5ta cells [1]; LDVP-12pN, 50 uM, listed as para-amino-Blebbistatin) was “no role”, the “share of rupture requiring myosin II (para-amino-Blebbistatin)” value (BJ-5ta cells [1]; LDVP-33pN) was “about one third” and the “rupture of LDVP-33pN with inhibitor (in words)” value (BJ-5ta cells [1]; LDVP-33pN, 50 uM) was “significantly reduced rupture events”. The “rupture of RGD-54pN with inhibitor (in words)” value (BJ-5ta cells [1]; RGD-54pN) was “significantly suppressed”, the “share of rupture requiring myosin II (para-amino-Blebbistatin)” value (BJ-5ta cells [1]; RGD-54pN) was “half” and the “cell spreading with inhibitor (in words)” value (BJ-5ta cells [1]) was “did not disrupt cell spreading”.

Work on `C[C@H](N)C(=O)N[C@H]1CSSC[C@@H](C(=O)NCC(=O)O)NC(=O)[C@H](Cc2c[nH]c3ccccc23)NC(=O)CNC(=O)[C@H](CC(=O)O)NC(=O)CNC(=O)[C@H](CCCNC(=N)N)NC1=O` yielded an IC50 (integrin αVβ3) of 765 ± 84 nM, a Kd (integrin αVβ3; Kd αVβ3, L15 + 1 mM Mn2+, 1% BSA, competition with 25 nM cRGDfK-TF5WS) of 170 ± 20 nM and a Kd (integrin αVβ3; Kd αVβ3, L15, 1% BSA, no Mn2+, competition with cRGDfK-TF5WS (25 nM for Fabs, 50 nM for ACRGDGWCG), Kd = EC50/(1+CL/Kd,L)) of 530 ± 60 nM. It also gave an EC50 (integrin αVβ5; EC50 αVβ5, L15 + 1 mM Mn2+, competition with 25 nM cRGDfK-TF5WS) of 102 ± 7 nM, an EC50 (integrin αVβ5; EC50 αVβ5, L15, no Mn2+, competition with 50 nM cRGDfK-TF5WS) of 367 ± 29 nM and a Kd (integrin αVβ5; Kd αVβ5, L15 + 1 mM Mn2+, 1% BSA, competition with 25 nM cRGDfK-TF5WS) of 50 ± 4 nM.

With `O=S(=O)(c1cccc2c(I)cccc12)N1CCCNCC1` [ML-7] the “rupture of RGD-54pN with inhibitor (in words)” value (BJ-5ta cells [1]; RGD-54pN) was “significantly suppressed” and the “cell spreading with inhibitor (in words)” value (BJ-5ta cells [1]) was “did not disrupt cell spreading”.

In the case of “proTGF-β1: physiologic macromolecular ligand with RGD motif”, the “cell morphology (in words)” value (BJ-5ta cells [2]; 1 h after seeding) is reported as “elongated with irregular lamellipodia”.

In the case of `O=C1NC(=S)N(c2cccc(Br)c2)C(=O)/C1=C/c1ccco1` [SMIFH2], the “TGT rupture with inhibitor (in words)” value (BJ-5ta cells [1]) is reported as “greatly diminished TGT rupture” and the “cell spreading with inhibitor (in words)” value (BJ-5ta cells [1]) is reported as “greatly decreased spreading”.

For “MUPA-LDVPAAK [LDVP-TGT, tension gauge tether conjugated with MUPA-LDVPAAK]”, the “tension threshold for cell spreading” value (BJ-5ta cells [2]; 1 h) was < 12 pN, the “cell spreading (in words)” value (BJ-5ta cells [2]; 1 h after seeding) was “adhered and spread well” and the retrograde actin flow (BJ-5ta cells [3]) was 24.8 nm/s. The “force needed for activation of β1 integrin to high affinity state” value [4] was “less than 12 pN” and the “12G10 Fab density / activated β1 density (in words)” value ([4]; versus control, 30 min) was “significantly above the control and similar at all Ttol”.

With “MUPA-LDVPAAK [α4β1-specific peptidomimetic; 2-methylphenylureaphenylacetyl moiety linked to LDVP motif]” the “spread cells (fraction), sheet 1c” value (BJ-5ta cells [2]; TGT 0.01 nM) was 0.05399, the “spread cells (fraction), sheet 1c” value (BJ-5ta cells [2]; TGT 0.1 nM) was 0 and the “spread cells (fraction), sheet 1c” value (BJ-5ta cells [2]; TGT 0.3 nM) was 0.8785. The “spread cells (fraction), sheet 1c” value (BJ-5ta cells [2]; TGT 1 nM) was 0.9623, the “spread cells (fraction), sheet 1c” value (BJ-5ta cells [2]; TGT 10 nM) was 0.9712 and the “spread cells (fraction), sheet 1c” value (BJ-5ta cells [2]; TGT 100 nM) was 0.9873. The “Spread cells on TGT, 12pN” value (BJ-5ta cells [2]; Ttol 12pN, 1 h, mean, SE in own column, n = 3 independent experiments, given as fraction) was 0.9277, the “Spread cells on TGT, 23pN” value (BJ-5ta cells [2]; Ttol 23pN, 1 h, mean, n = 3, given as fraction) was 0.9461 and the “Spread cells on TGT, 33pN” value (BJ-5ta cells [2]; Ttol 33pN, 1 h, mean, n = 3, given as fraction) was 0.9711. For the same compound, the “Spread cells on TGT, 43pN” value (BJ-5ta cells [2]; Ttol 43pN, 1 h, mean, n = 3, given as fraction) was 0.9954, the “Spread cells on TGT, 54pN” value (BJ-5ta cells [2]; Ttol 54pN, 1 h, mean, n = 3, given as fraction) was 0.9781 and the “traction force (in words)” value (BJ-5ta cells [5]; 4 kPa and 0.7 kPa gels, versus RGD) was “significantly lower”. For the same compound, the “lower traction force than on RGD” value (BJ-5ta cells [5]; soft gel (0.7 kPa)) was ~ 10 fold and the Kd (integrin α4β1 (EO state)) was 0.15 nM.

In the case of “cyclo [Arg-Gly-Asp-D-Phe-Lys(8-amino-3,6-dioxaoctanoic acid dimer)] (head to tail) [RGD-TGT]”, the “tension threshold for cell spreading” value (BJ-5ta cells [2]; 1 h) is reported as 33–43 pN and the retrograde actin flow (BJ-5ta cells [3]) is reported as 10.1 nm/s.

With “cyclic-ACRGDGWCGK (disulfide) [ACRGD-TGT]” the “spreading on ACRGD-54pN with blocking Fabs (in words)” value (BJ-5ta cells [6]; ACRGD-54pN (BHQ2-Cy3), 1 h) was “spread efficiently and developed elongated, irregular shapes” and the “force level required for spreading through α5β1” value (BJ-5ta cells [6]; blocking Fabs to αVβ1, αVβ3 and αVβ5 present) was > 33 pN.
